Source: US6960653B2, “Method and kit for detecting, or determining the quantity of, beta-lactam penicillins” (Randox Laboratories Limited, priority 2001, dated 2005)
≈ marks a conversion by molar mass, not a printed value.

Test system: IgG fraction of anti-ampicillin antiserum (antibodies raised against the hapten-BSA immunogen of Example 2)
Settings: for % CR, Assay 1 / % CR, Assay 2 / % CR, Assay 3: % CR = IC50amp/IC50pen x 100; for IC50, Assay 1 / IC50, Assay 2 / IC50, Assay 3: concentration causing 50% displacement of signal, standards in TBST, ampicillin-HRP conjugate; for IC50, Mean Results / % CR, Mean Results: mean of Assays 1-3; for % CR, Mean Results: relative to 100% for ampicillin
Description: An aqueous solution of the immunogen of Example 2 was formulated with Freund's Complete Adjuvant (FCA) to form an emulsion consisting of 2 mg/ml immunogen in 50% (v/v) FCA. Three sheep were immunised with this emulsion, 0.25 ml being subcutaneously injected at each of 4 sites in the flank of each animal. Subsequent immunisations (boosts) contained 1 mg/ml immunogen emulsified in 50% (v/v) Freund's Incomplete Adjuvant (FIA) and were administered in the same manner at monthly intervals for 1 year. Blood sampling took place 7 to 14 days after each boost. Each sample was processed to produce antiserum which was further purified by caprylic acid and ammonium sulfate precipitation to yield an immunoglobulin G (IgG) fraction. The IgG fraction was evaluated by competitive ELISA, microtiter plate assay, as described below.
Serial dilutions of the IgG fraction of each antiserum to be tested (prepared in accordance with Example 4) were prepared in 10 mM Tris, pH 8.5. The wells of an enhanced binding 96 well polystyrene microtiter plate were coated with these dilutions (as shown in FIG. 2) by incubation at 37° C. for 2 hours (125 μl/well). The plate was washed 4 times with Tris buffered saline (pH7.4) containing Tween (Trade Mark) 20 (TBST) and tapped dry. […] 50 μl of TBST was added to the remaining (control) wells. […] The plate was incubated at 37° C. for 2 hours. The excess unbound conjugate was removed by washing 6 times over a 10 minute period with TBST. 125 μl of tetramethylbenzidine (TMB) substrate solution was added to each well of the plate, which was then incubated for 15 to 20 minutes, in the dark, at room temperature. The reaction was terminated by addition of 125 μl 0.2M H2SO4 to each well. The absorbance was then measured at 450 nm using a microtiter plate reader.
Standard solutions of benzylpenicillin (penicillin G-PenG), amoxycillin (Amox), cloxacillin (Clox), dicloxacillin (Diclox) and oxacillin (Oxa) were prepared in TBST at 0, 1, 5, 10, 50, 100, 200 and 500 ng/ml.

| SMILES | % CR, Assay 1 [%] | IC50, Assay 1 [ng/mL] | % CR, Assay 2 [%] | IC50, Assay 2 [ng/mL] | % CR, Assay 3 [%] | IC50, Assay 3 [ng/mL] | IC50, Mean Results [ng/mL] | % CR, Mean Results [%] |
| --- | --- | --- | --- | --- | --- | --- | --- | --- |
| Cc1onc(-c2c(Cl)cccc2Cl)c1C(=O)N[C@@H]1C(=O)N2[C@@H]1SC(C)(C)[C@@H]2C(=O)O [Dicloxa, dicloxacillin] | 45 | 3.8 (≈ 8.08 nM) | 42 | 6.0 (≈ 12.8 nM) | 51 | 4.9 (≈ 10.4 nM) | 4.9 (≈ 10.4 nM) | 46 |
| CC1(C)S[C@@H]2[C@H](NC(=O)Cc3ccccc3)C(=O)N2[C@H]1C(=O)O [PenG, benzylpenicillin] | 63 | 2.7 (≈ 8.07 nM) | 78 | 3.2 (≈ 9.57 nM) | 74 | 3.4 (≈ 10.2 nM) | 3.1 (≈ 9.27 nM) | 72 |
| Cc1onc(-c2ccccc2Cl)c1C(=O)N[C@@H]1C(=O)N2[C@@H]1SC(C)(C)[C@@H]2C(=O)O [Cloxa, cloxacillin] | 50 | 3.4 (≈ 7.8 nM) | 43 | 5.8 (≈ 13.3 nM) | 43 | 5.8 (≈ 13.3 nM) | 5 (≈ 11.5 nM) | 45 |
| CC1(C)S[C@@H]2[C@H](NC(=O)[C@H](N)c3ccccc3)C(=O)N2[C@H]1C(=O)O [Amp, ampicillin] | 100 | 1.7 (≈ 4.87 nM) | 100 | 2.5 (≈ 7.15 nM) | 100 | 2.5 (≈ 7.15 nM) | 2.2 (≈ 6.3 nM) | 100 |
| CC1(C)SC2C(NC(=O)C(N)c3ccc(O)cc3)C(=O)N2C1C(=O)O (stereo not drawn) [Amox, amoxycillin] | 94 | 1.8 (≈ 4.93 nM) | 83 | 3.0 (≈ 8.21 nM) | 83 | 3.0 (≈ 8.21 nM) | 2.6 (≈ 7.12 nM) | 87 |
| Cc1onc(-c2ccccc2)c1C(=O)N[C@@H]1C(=O)N2[C@@H]1SC(C)(C)[C@@H]2C(=O)O [Oxa, oxacillin] | 42.5 | 4.0 (≈ 9.96 nM) | 36 | 7.0 (≈ 17.4 nM) | 38 | 6.6 (≈ 16.4 nM) | 5.9 (≈ 14.7 nM) | 39 |
